We go through two compounds from patent US20150336889A1, “INDOLE DERIVATIVES, PHARMACEUTICAL COMPOSITIONS CONTAINING SUCH INDOLES AND THEIR USE AS DNA METHYLATION MODULATORS” (IKERCHEM, S.L., priority 2012, published 2015).

One test has as its system PC3. The experiment in a line: Cancer cell growth inhibition, PC3. The class given is cell-based. Particulars: Homo sapiens, PC-3; Prostate, PC3, cell viability, 72 h. The method, then:
(§1) Cell culture-based assays were used to evaluate the ability of compounds of the invention to inhibit cancer cell growth inhibition.
(§2) Cells were obtained from the American Type Culture Collection (ATCC) and European Collection of Cell Cultures (ECACC).
(§3) Cells were thawed in their appropriate media plus supplements (see table below). Cells were passaged at confluence by washing once in HBSS cation-free followed by a 3 minutes incubation with trypsin ([0.5 μg/ml]/EDTA [0.2 μg/ml]) (Gibco-BRL, 15400054) solution in HBSS at 37° C. (except non-adherent cell lines), and transferred to their appropriate media plus supplements. Prior to seeding at defined cell concentration, cells were recovered in medium, centrifuged and taken up in medium, and counted.
(§4) Cells were plated at 3000/5000/10000 cells/well in 100 μl media in tissue culture 96 well plates (Cultek). After 24 h, media was supplemented by 100 μl/well of diluted IPDNs at 100 μM.
(§5) The Hexosaminidase assay was used for the adherent cell lines, whereas the AlamarBlue® assay was used for the non-adherent cell lines.
(§6) Dose-response curves were generated by serial dilutions (1:1) of the compounds. […] Reagent blanks, containing media plus colorimetric reagent without cells were run on each plate. Blank values were subtracted from test values and were routinely 5-10% of uninhibited control values. Plates were incubated 72 h, and living cell number was determined by AlamarBlue® and Hexosaminidase test. The advantages of using those assays are that both can be done in the same microwell plate. AlamarBlue® assay: plates were incubated 72 h and living cell number was determined by AlamarBlue (Biosource DAL1100). After 4 h incubation at 37° C., relative fluorescent intensity, which correlates with the number of living cells, was read in a Cytofluor plate reader (Millipore) at 535/590 nm (Excitation/emission). The hexosaminidase activity was measured according to the following protocol: the media was removed and cells were washed once with PBS.
(§7) Data analysis was done by calculating the percentage of cell viability normalized in front of negative control values, which were considered as a 100%. The curve was adjusted using a sigmoidal dose-response (variable slope) equation and EC50 values were obtained from the equation
(§8) where, X is the logarithm of concentration. Y is the response. Bottom is the Y value at the bottom plateau Top is the Y value at the top plateau LogEC50 is the X value when the response is halfway between Bottom and Top. With different kinds of variables, this variable is sometimes called ED50 (effective dose, 50%), or IC50 (inhibitory concentration, 50%, used when the curve goes downhill).

A further test has as its system NCI-H358. The experiment in a line: Cancer cell growth inhibition, NCI-H358. The class given is cell-based. The settings on record: Homo sapiens; Lung, NCI-H358, cell viability, 72 h. The method, then:
as §1, §2, §3, §4, §5, §6, §7, §8

For a further test, the system named is HT-29. The test can be described thus: Cancer cell growth inhibition, HT-29. The class given is cell-based. The settings on record: Homo sapiens; Colorectal, HT-29, cell viability, 72 h. The method, then:
as §1, §2, §3, §4, §5
as §6, with “PBS. […]” for “PBS.”

In the next test the test system is U-87MG. The test can be described thus: Cancer cell growth inhibition, U-87MG. The class given is cell-based. Particulars: Homo sapiens, Brain, cell viability, 72 h. The method, then:
as §1, §2, §3, §4, §5, §6, §7, §8

In another test the test system is Colo205. The test can be described thus: Cancer cell growth inhibition, Colo205. Format: cell-based. The settings on record: Homo sapiens, COLO 205; Colorectal, Colo205, cell viability, 72 h. As for the experimental part:
as §1, §2, §3, §4, §5
as §6, with “PBS. […]” for “PBS.”

The next test has as its system MCF-7. The experiment in a line: Cancer cell growth inhibition, MCF-7. Format: cell-based. Particulars: Homo sapiens, MCF7; Breast, MCF-7, cell viability, 72 h. As for the experimental part:
as §1, §2, §3, §4, §5, §6, §7, §8

A further test has as its system RAMOS. The test can be described thus: Cancer cell growth inhibition, RAMOS. The settings on record: Homo sapiens, Hematologic, cell viability, 72 h. Format: cell-based. As for the experimental part: as §1, §2, §3, §4, §5, §6, §7, §8
For a further test, the system named is MDA-MB-435. The test can be described thus: Cancer cell growth inhibition, MDA-MB-435. The class given is cell-based. Particulars: Homo sapiens; Melanoma, MDA-MB-435, cell viability, 72 h. The method, then:
as §1, §2, §3, §4, §5, §6, §7, §8

Another test deals with HeLa. The test can be described thus: Cancer cell growth inhibition, HeLa. The class given is cell-based. Particulars: Homo sapiens, Cervical, cell viability, 72 h. As for the experimental part:
as §1, §2, §3, §4, §5
as §6, with “PBS. […]” for “PBS.”

The target of the next test is T1, Human DNMT1 (Homo sapiens, UniProt P26358).
T1 construct: a-a 2-1632, with N-terminal GST tag; GST (N)
T1 sequence (P26358 2-1632 isoform P26358-2): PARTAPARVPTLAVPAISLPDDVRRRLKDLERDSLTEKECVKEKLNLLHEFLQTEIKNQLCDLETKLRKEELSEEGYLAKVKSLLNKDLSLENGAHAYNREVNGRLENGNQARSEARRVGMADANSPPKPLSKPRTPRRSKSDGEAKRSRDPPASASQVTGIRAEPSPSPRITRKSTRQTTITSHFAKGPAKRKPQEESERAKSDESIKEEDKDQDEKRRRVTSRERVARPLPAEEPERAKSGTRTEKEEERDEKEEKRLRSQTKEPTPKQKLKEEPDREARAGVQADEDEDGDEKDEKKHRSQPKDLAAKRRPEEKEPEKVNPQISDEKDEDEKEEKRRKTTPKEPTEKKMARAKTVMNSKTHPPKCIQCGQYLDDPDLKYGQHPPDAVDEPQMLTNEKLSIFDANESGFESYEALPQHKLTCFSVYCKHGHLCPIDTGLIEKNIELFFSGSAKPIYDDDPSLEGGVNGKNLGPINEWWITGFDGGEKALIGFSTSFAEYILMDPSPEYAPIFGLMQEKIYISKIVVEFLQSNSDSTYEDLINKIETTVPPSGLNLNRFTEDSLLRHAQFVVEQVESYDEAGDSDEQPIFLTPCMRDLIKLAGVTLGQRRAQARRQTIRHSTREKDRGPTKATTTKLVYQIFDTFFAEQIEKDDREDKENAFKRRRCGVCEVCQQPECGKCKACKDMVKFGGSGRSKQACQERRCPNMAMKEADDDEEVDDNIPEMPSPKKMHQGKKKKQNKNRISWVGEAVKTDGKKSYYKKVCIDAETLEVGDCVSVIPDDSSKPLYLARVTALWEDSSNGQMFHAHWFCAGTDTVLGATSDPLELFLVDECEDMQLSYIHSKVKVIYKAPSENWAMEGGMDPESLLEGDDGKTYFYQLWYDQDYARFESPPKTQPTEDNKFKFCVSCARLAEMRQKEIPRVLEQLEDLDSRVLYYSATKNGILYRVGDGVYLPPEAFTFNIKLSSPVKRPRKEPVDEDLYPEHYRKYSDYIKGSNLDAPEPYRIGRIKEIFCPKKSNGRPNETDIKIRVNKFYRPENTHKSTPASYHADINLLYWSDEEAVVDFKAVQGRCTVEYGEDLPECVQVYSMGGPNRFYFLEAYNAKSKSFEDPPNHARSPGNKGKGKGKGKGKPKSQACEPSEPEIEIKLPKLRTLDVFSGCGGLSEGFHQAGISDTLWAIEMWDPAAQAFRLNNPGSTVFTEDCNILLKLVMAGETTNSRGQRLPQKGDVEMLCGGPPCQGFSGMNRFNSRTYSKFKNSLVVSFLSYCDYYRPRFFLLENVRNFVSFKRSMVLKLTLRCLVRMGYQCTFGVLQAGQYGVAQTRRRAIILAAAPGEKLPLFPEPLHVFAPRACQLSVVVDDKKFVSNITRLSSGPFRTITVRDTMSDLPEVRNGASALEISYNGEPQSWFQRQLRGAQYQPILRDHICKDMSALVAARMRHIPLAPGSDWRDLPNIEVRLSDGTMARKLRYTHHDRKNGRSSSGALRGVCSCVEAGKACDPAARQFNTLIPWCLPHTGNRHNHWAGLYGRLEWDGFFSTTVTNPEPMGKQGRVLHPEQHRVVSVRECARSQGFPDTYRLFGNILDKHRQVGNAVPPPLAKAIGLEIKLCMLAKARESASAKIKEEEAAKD
The experiment in a line: DNMT1 enzymatic activity inhibition, radioisotope-based 3H-SAM filter binding assay. The class given is biochemical. The settings on record: 1 μM SAM, 25 nM DNMT1, 0.005 mg/ml Poly(dI-dC), 30° C. 1 hour, 10-dose. The method, then: The inhibition of the enzymatic activity of DNMT1 was tested using low volume radioisotope-based assay which uses tritium-labeled AdoMet (^3H-SAM) as a methyl donor. Inhibitors diluted in DMSO were added by using acoustic technology (Echo550, Labcyte Inc. Sunnyvale, Calif.) into enzyme/substrate mixture in nano-liter range. The reaction was initiated by the addition of ^3H-SAM, and incubated at 30° C. for 1 hour. Total final methylations on the substrate poly(dI-dC) were detected by a filter binding approach. Data analysis was performed using GraphPad Prism software (La Jolla, Calif.) for IC50 curve fits.

The subject of another test is T47D. The experiment in a line: Cancer cell growth inhibition, T47D. Format: cell-based. Particulars: Homo sapiens, Breast, cell viability, 72 h. As for the experimental part: as §1, §2, §3, §4, §5, §6, §7, §8
In another test the test system is NCI-H1650. The test can be described thus: Cancer cell growth inhibition, NCI-H1650. The class given is cell-based. The settings on record: Homo sapiens; Lung, NCI-H1650, cell viability, 72 h. The method, then: as §1, §2, §3, §4, §5
as §6, with “PBS. […]” for “PBS.”

The next test relates to RWPI. The test can be described thus: Cancer cell growth inhibition, RWPI. Particulars: Pancreatic, cell viability, 72 h. The class given is cell-based. The method, then:
as §1, §2
(§9) Cells were thawed in their appropriate media plus supplements (see table below). Cells were passaged at confluence by washing once in HBSS cation-free followed by a 3 minutes incubation with trypsin ([0.5 μg/ml]/EDTA [0.2 μg/ml]) (Gibco-BRL, 15400054) solution in HBSS at 37° C. (except non-adherent cell lines), and transferred to their appropriate media plus supplements. Prior to seeding at defined cell concentration, cells were recovered in medium, centrifuged and taken up in medium, and counted. […]
(§10) Dose-response curves were generated by serial dilutions (1:1) of the compounds. […] Plates were incubated 72 h, and living cell number was determined by AlamarBlue® and Hexosaminidase test. […] AlamarBlue® assay: plates were incubated 72 h and living cell number was determined by AlamarBlue (Biosource DAL1100). After 4 h incubation at 37° C., relative fluorescent intensity, which correlates with the number of living cells, was read in a Cytofluor plate reader (Millipore) at 535/590 nm (Excitation/emission). The hexosaminidase activity was measured according to the following protocol: the media was removed and cells were washed once with PBS. […]

The subject of the next test is 143B. The test can be described thus: Cancer cell growth inhibition, 143B. The class given is cell-based. The settings on record: Homo sapiens, Osteosarcoma, cell viability, 72 h. The method, then: as §1, §2, §3, §4, §5, §6, §7, §8
For the next test, the system named is A-431. The experiment in a line: Cancer cell growth inhibition, A-431. Format: cell-based. The settings on record: Homo sapiens; Epidermoid, A-431, cell viability, 72 h. As for the experimental part:
as §1, §2, §3, §4, §5, §6, §7, §8

The test system of the next test is K562. The experiment in a line: Cancer cell growth inhibition, K562. Format: cell-based. The settings on record: Homo sapiens; Hematologic, K562, cell viability, 72 h. As for the experimental part: as §1, §2, §3, §4, §5
as §6, with “PBS. […]” for “PBS.”

The test system of a further test is DU-145. The experiment in a line: Cancer cell growth inhibition, DU-145. The class given is cell-based. The settings on record: Homo sapiens; Prostate, DU-145, cell viability, 72 h. The method, then: as §1, §2, §3, §4, §5
as §6, with “PBS. […]” for “PBS.”

The subject of a further test is HepG2. The experiment in a line: Cancer cell growth inhibition, HepG2. Format: cell-based. Particulars: Homo sapiens; Liver, HepG2, cell viability, 72 h. The method, then: as §1, §2, §9, §10
For another test, the system named is A-549. The test can be described thus: Cancer cell growth inhibition, A-549. Format: cell-based. Particulars: Homo sapiens, A549; Lung, A-549, cell viability, 72 h. As for the experimental part:
as §1, §2, §3, §4, §5, §6, §7, §8

The next test relates to HT-1080. The test can be described thus: Cancer cell growth inhibition, HT-1080. The class given is cell-based. Particulars: Homo sapiens; HT-1080, cell viability, 72 h. As for the experimental part:
as §1, §2, §3, §4, §5, §6, §7, §8

A further test has as its system OVCAR-3. The experiment in a line: Cancer cell growth inhibition, OVCAR-3. Format: cell-based. The settings on record: Homo sapiens; Ovarian, OVCAR-3, cell viability, 72 h. The method, then: as §1, §2, §9, §10
The test system of a further test is Jurkat. The test can be described thus: Cancer cell growth inhibition, Jurkat. The settings on record: Homo sapiens, Hematologic, cell viability, 72 h. Format: cell-based. The method, then: as §1, §2, §3, §4, §5, §6, §7, §8

With `COc1cc(OC)c2c(-c3ccc(O)cc3)cn(CC(=O)c3ccc(O)cc3)c2c1` [Example 6, 1-(4-hydroxyphenyl)-2-[3-(4-hydroxyphenyl)-4,6-dimethoxy-1H-indol-1-yl]ethanone], the half-maximal effective concentration (EC50) in the test with PC3 is 51 µM; in the test with NCI-H358 it was 7.3 µM; in the test on HT-29 it was 11 µM; in the test on U-87MG, 13 µM; with Colo205, 16 µM; with MCF-7, 6.2 µM. Further, the half-maximal effective concentration (EC50) with RAMOS amounted to 6.6 µM; in the test on MDA-MB-435, 4.3 µM; in the test with HeLa it was 6.9 µM; in the test on T47D, 11 µM; in the test with NCI-H1650, 11 µM; with RWPI it was 25 µM. Moreover, the EC50 amounted to 19 µM in the test with 143B; 11 µM with A-431; 13 µM in the test on K562; 16 µM with DU-145; 19 µM in the test on HepG2; 11 µM in the test with A-549. The concentration giving a half-maximal response (EC50) in the test on HT-1080 turned out to be 9.7 µM; in the test on OVCAR-3, 7.2 µM; in the test with Jurkat, 1.9 µM. Also, the IC50 at Human DNMT1 amounted to 27.9 µM.
Take `O=C(Cn1cc(-c2ccc(O)cc2)c2c(F)cc(F)cc21)c1ccc(O)cc1` [Example 16, 2-[4,6-difluoro-3-(4-hydroxyphenyl)-1H-indol-1-yl]-1-(4-hydroxyphenyl) ethanone]: the half-maximal effective concentration (EC50) in the test on PC3 came to 83 µM; with NCI-H358, 23 µM; in the test with HT-29, 66 µM; in the test with U-87MG, 95 µM; with Colo205, 31 µM; in the test with MCF-7 it was 41 µM. In addition, the concentration for a half-maximal effect (EC50) in the test on RAMOS is 35 µM; in the test on MDA-MB-435, 57 µM; in the test on HeLa, 68 µM; in the test with T47D, 31 µM; in the test with NCI-H1650 it was 76 µM; in the test with RWPI, 46 µM. Moreover, the half-maximal effective concentration (EC50) is 31 µM in the test on 143B; 66 µM in the test on A-431; 51 µM in the test on K562; 65 µM in the test on DU-145; 44 µM with HepG2; 39 µM in the test on A-549. In addition, the EC50 in the test on HT-1080 is 52 µM; with OVCAR-3 it was 47 µM; with Jurkat it was 30 µM. Also, the IC50 on Human DNMT1 was found to be 22.5 µM.
